Reference: ChEMBL document CHEMBL3885881, “DrugMatrix”

Species: Rattus norvegicus
Test: DrugMatrix - Regimen: Daily Repeat
Format: toxicity, organism-based, Sprague-Dawley
Design: regimen Daily Repeat, gender Male, age 6-8 weeks
Conditions: in vivo, iv, vehicle 100 % SALINE; for ABSOLUTE MONOCYTE / ABSOLUTE SEGMENTED NEUTROPHIL / BASOPHIL / EOSINOPHIL / ERYTHROCYTE COUNT / HEMATOCRIT / HEMOGLOBIN / LEUKOCYTE COUNT / LYMPHOCYTE / MEAN CORPUSCULAR HEMOGLOBIN / MEAN CORPUSCULAR HEMOGLOBIN CONCENTRATION / MEAN CORPUSCULAR VOLUME / MONOCYTE / NEUTROPHIL / NUCLEATED RED BLOOD CELLS / PLATELET COUNT / ABSOLUTE BASOPHIL / ABSOLUTE EOSINOPHIL / ABSOLUTE LYMPHOCYTE: tissue Blood; for ALANINE AMINOTRANSFERASE / ALBUMIN / ALKALINE PHOSPHATASE / ASPARTATE AMINOTRANSFERASE / BLOOD UREA NITROGEN / CARBON DIOXIDE / CHLORIDE / CHOLESTEROL / CREATINE PHOSPHOKINASE / CREATININE / GLUCOSE / LACTATE DEHYDROGENASE / LIPASE / PHOSPHORUS / POTASSIUM / SODIUM / TOTAL BILIRUBIN / TOTAL PROTEIN / URIC ACID: tissue Plasma
[1] = 20 mg/kg, 120 h, dose level Low, time 5 day
[2] = 82 mg/kg, 72 h, dose level High, time 3 day
[3] = 82 mg/kg, 120 h, dose level High, time 5 day

## NCC[C@H](O)C(=O)N[C@@H]1C[C@H](N)[C@@H](O[C@H]2O[C@H](CN)[C@@H](O)[C@H](O)[C@H]2O)[C@H](O)[C@H]1O[C@H]1O[C@H](CO)[C@@H](O)[C@H](N)[C@H]1O [AMIKACIN]
[1]
  ABSOLUTE MONOCYTE: 11 CELLS/uL
  ABSOLUTE SEGMENTED NEUTROPHIL: 480 CELLS/uL
  BASOPHIL: 0%
  EOSINOPHIL: 0%
  ERYTHROCYTE COUNT: 5.48 x10E6/uL
  HEMATOCRIT: 33%
  HEMOGLOBIN: 12.63 G/DL
  LEUKOCYTE COUNT: 3.67 x10E3/uL
  LYMPHOCYTE: 86.67%
  MEAN CORPUSCULAR HEMOGLOBIN: 23 pg
  MEAN CORPUSCULAR HEMOGLOBIN CONCENTRATION: 38.3 G/DL
  MEAN CORPUSCULAR VOLUME: 60.1 fL
  MONOCYTE: 0.33%
  NEUTROPHIL: 13%
  NUCLEATED RED BLOOD CELLS: 0 /100WBC
  PLATELET COUNT: 622.33 x10E3/uL
  ALANINE AMINOTRANSFERASE: 72.67 u/L
  ALBUMIN: 3.63 G/DL
  ALKALINE PHOSPHATASE: 187.33 u/L
  ASPARTATE AMINOTRANSFERASE: 329.33 u/L
  BLOOD UREA NITROGEN: 16 mg/dL
  CARBON DIOXIDE: 32.67 mmol/L
  CHLORIDE: 98.67 MEQ/L
  CHOLESTEROL: 81.33 mg/dL
  CREATINE PHOSPHOKINASE: 388 u/L
  CREATININE: 0.13 mg/dL
  GLUCOSE: 162.67 mg/dL
  LACTATE DEHYDROGENASE: 112 u/L
  LIPASE: 9.67 u/L
  PHOSPHORUS: 10.23 mg/dL
  POTASSIUM: 5.93 MEQ/L
  SODIUM: 142.37 MEQ/L
  TOTAL BILIRUBIN: 0.1 mg/dL
  TOTAL PROTEIN: 5.3 G/DL
  URIC ACID: 0.53 mg/dL
[2]
  ABSOLUTE BASOPHIL: 0 CELLS/uL
  ABSOLUTE EOSINOPHIL: 29 CELLS/uL
  ABSOLUTE LYMPHOCYTE: 10165.67 CELLS/uL
  ABSOLUTE MONOCYTE: 121.67 CELLS/uL
  ABSOLUTE SEGMENTED NEUTROPHIL: 950.33 CELLS/uL
  BASOPHIL: 0%
  EOSINOPHIL: 0.33%
  ERYTHROCYTE COUNT: 5.81 x10E6/uL
  HEMATOCRIT: 35.97%
  HEMOGLOBIN: 13.7 G/DL
  LEUKOCYTE COUNT: 11.27 x10E3/uL
  LYMPHOCYTE: 90%
  MEAN CORPUSCULAR HEMOGLOBIN: 23.6 pg
  MEAN CORPUSCULAR HEMOGLOBIN CONCENTRATION: 38.1 G/DL
  MEAN CORPUSCULAR VOLUME: 61.93 fL
  MONOCYTE: 1%
  NEUTROPHIL: 8.67%
  NUCLEATED RED BLOOD CELLS: 0.33 /100WBC
  PLATELET COUNT: 1125.33 x10E3/uL
  ALANINE AMINOTRANSFERASE: 50.67 u/L
  ALBUMIN: 4.17 G/DL
  ALKALINE PHOSPHATASE: 370.33 u/L
  ASPARTATE AMINOTRANSFERASE: 84 u/L
  BLOOD UREA NITROGEN: 14.33 mg/dL
  CARBON DIOXIDE: 35 mmol/L
  CHLORIDE: 98.67 MEQ/L
  CHOLESTEROL: 74.33 mg/dL
  CREATINE PHOSPHOKINASE: 385.33 u/L
  CREATININE: 0.18 mg/dL
  GLUCOSE: 178.33 mg/dL
  LACTATE DEHYDROGENASE: 142.67 u/L
  LIPASE: 9 u/L
  PHOSPHORUS: 11.27 mg/dL
  POTASSIUM: 6 MEQ/L
  SODIUM: 143.33 MEQ/L
  TOTAL BILIRUBIN: 0.2 mg/dL
  TOTAL PROTEIN: 5.97 G/DL
  URIC ACID: 0.7 mg/dL
[3]
  ABSOLUTE BASOPHIL: 0 CELLS/uL
  ABSOLUTE EOSINOPHIL: 0 CELLS/uL
  ABSOLUTE LYMPHOCYTE: 6237.33 CELLS/uL
  ABSOLUTE MONOCYTE: 19 CELLS/uL
  ABSOLUTE SEGMENTED NEUTROPHIL: 743.67 CELLS/uL
  BASOPHIL: 0%
  EOSINOPHIL: 0%
  ERYTHROCYTE COUNT: 5.27 x10E6/uL
  HEMATOCRIT: 33.87%
  HEMOGLOBIN: 13.13 G/DL
  LEUKOCYTE COUNT: 7 x10E3/uL
  LYMPHOCYTE: 89.33%
  MEAN CORPUSCULAR HEMOGLOBIN: 24.93 pg
  MEAN CORPUSCULAR HEMOGLOBIN CONCENTRATION: 38.8 G/DL
  MEAN CORPUSCULAR VOLUME: 64.2 fL
  MONOCYTE: 0.33%
  NEUTROPHIL: 10.33%
  NUCLEATED RED BLOOD CELLS: 0.33 /100WBC
  PLATELET COUNT: 1177.67 x10E3/uL
  ALANINE AMINOTRANSFERASE: 59.67 u/L
  ALBUMIN: 3.9 G/DL
  ALKALINE PHOSPHATASE: 382 u/L
  ASPARTATE AMINOTRANSFERASE: 82 u/L
  BLOOD UREA NITROGEN: 17.33 mg/dL
  CARBON DIOXIDE: 32.33 mmol/L
  CHLORIDE: 100 MEQ/L
  CHOLESTEROL: 63.67 mg/dL
  CREATINE PHOSPHOKINASE: 235.67 u/L
  CREATININE: 0.15 mg/dL
  GLUCOSE: 160.67 mg/dL
  LACTATE DEHYDROGENASE: 113.33 u/L
  LIPASE: 9.33 u/L
  PHOSPHORUS: 10.73 mg/dL
  POTASSIUM: 5.04 MEQ/L
  SODIUM: 143.97 MEQ/L
  TOTAL BILIRUBIN: 0.17 mg/dL
  TOTAL PROTEIN: 5.83 G/DL
  URIC ACID: 0.5 mg/dL
